Structures can show the parent of a compound that is named as a salt.
melting point	SMILES
100 to 103 °C	COc1ccccc1C1CCN(C[C@@H](CC2CCCCC2)NC(=O)C2CCCCC2)CC1 (as salt: hydrochloride) (hydrate or solvate) [Example 15, Cyclohexanecarboxylic Acid {(1R)-1-Cyclohexylmethyl-2-[4-(2-methoxyphenyl)-piperidin-1-yl]-ethyl}-amide]
208 to 210 °C	COc1ccccc1C1CCN(C[C@@H](CC2CCCCC2)NC(=O)C2(C)CCCCC2)CC1 (as salt: hydrochloride) (hydrate or solvate) [Example 16, 1-Methyl-cyclohexanecarboxylic acid {(1R)-1-cyclohexylmethyl-2-[4-(2-methoxyphenyl)-piperidin-1-yl]-ethyl}-amide]
135 to 137 °C	COc1ccccc1C1CCN(C[C@@H](CC2CCCCC2)N(C)C(=O)C2CCCCC2)CC1 (as salt: hydrochloride) (hydrate or solvate) [Example 17, Cyclohexanecarboxylic Acid {(1R)-1-Cyclohexylmethyl-2-[4-(2-methoxyphenyl)-piperidin-1-yl]-ethyl}-methyl-amide]
169 to 171 °C	COc1ccccc1C1CCN(C[C@@H](CC2CCCCC2)N(C)C(=O)C2(C)CCCCC2)CC1 (as salt: hydrochloride) (hydrate or solvate) [Example 18, 1-Methyl-cyclohexanecarboxylic Acid {(1R)-1-Cyclohexylmethyl-2-[4-(2-methoxypheniyl)-piperidin-1-yl]-ethyl}-methyl-amide]
97 to 99 °C	COc1ccccc1C1CCN(C[C@@H](CC2CCCCC2)NC(=O)C(C)(C)C)CC1 (as salt: hydrochloride) (hydrate or solvate) [Example 19, N-{(1R)-1-Cyclohexylmethyl-2-[4-(2-methoxyphenyl)-piperidin-1-yl]-ethyl}-2,2-dimethyl-propionamide]
233 to 236 °C	COc1ccccc1C1CCN(C[C@@H](CC2CCCCC2)N(C)C(=O)C(C)(C)C)CC1 (as salt: hydrochloride) (hydrate or solvate) [Example 20, N-{(1R)-1-Cyclohexylmethyl-2-[4-(2-methoxyphenyl)-piperidin-1-yl]-ethyl}-2,2,N-trimethyl-propionamide]
155 to 159 °C	O=C(N[C@H](CC1CCCCC1)CN1CCN(c2nccc3ccccc23)CC1)C1CCCCC1 (as salt: hydrochloride) [Example 14, Cyclohexanecarboxylic Acid {(1R)-1-Cyclohexylmethyl-2-[4-(isoquinolin-1-yl)-piperazin-1-yl]-ethyl}-amide]

More lines, now with the values behind:

SMILES	melting point
COc1ccccc1N1CCN(C[C@@H](CC2CCCCC2)NC(=O)C2(C)CCCCC2)CC1 (as salt: hydrochloride) (hydrate or solvate) [Example 2, 1-Methyl-cyclohexanecarboxylic Acid of {(1R)-1-Cyclohexylmethyl-2-[4-(2-methoxyphenyl)-piperazin-1-yl]-ethyl}-amide]	119 to 121 °C
CN(C(=O)C1CCCCC1)[C@H](CC1CCCCC1)CN1CCN(c2cccc3c2OCCO3)CC1 (as salt: hydrochloride) (hydrate or solvate) [Example 5]	147 to 148 °C
CN(C(=O)C1CCCCC1)[C@H](CC1CCCCC1)CN1CCN(c2cccc3[nH]ccc23)CC1 (as salt: hydrochloride) (hydrate or solvate) [Example 7, Cyclohexanecarboxylic Acid {(1R)-1-Cyclohexylmethyl-2-[4-(1H-indol-4-yl)-piperazin-1-yl]-ethyl}-methyl-amide]	> 260 °C
COc1ccccc1N1CCN(C[C@@H](CC2CCCCC2)NC=O)CC1 (as salt: hydrochloride) (hydrate or solvate) [Example 9, N-{(1R)-1-Cyclohexylmethyl-2-[4-(2-methoxyphenyl)-piperazin-1-yl]-ethyl}-formamide]	157 to 159 °C
COc1ccccc1C1=CCN(C[C@@H](CC2CCCCC2)NC(=O)C2(C)CCCCC2)CC1 (as salt: hydrochloride) (hydrate or solvate) [Example 21, 1-Methyl-cyclohexanecarboxylic Acid {(1R)-1-Cyclohexylmethyl-2-[4-(2-methoxyphenyl)-3,6-dihydro-2H-pyridin-1-yl]-ethyl}-amide]	93 to 95 °C
COc1ccccc1N1CCN(C[C@@H](CC2CCCCC2)NC(=O)C2CCCCC2)CC1 (as salt: hydrochloride) [Example 1, Cyclohexanecarboxylic Acid {(1R)-1-Cyclohexylmethyl-2-[4-(2-methoxyphenyl)-piperazin-1-yl]-ethyl}-amide]	121 to 131 °C
COc1ccccc1N1CCN(C[C@@H](CC2CCCCC2)N(C)C(=O)C2CCCCC2)CC1 (as salt: hydrochloride) [Example 3, Cyclohexanecarboxylic Acid {(1R)-1-Cyclohexylmethyl-2-[4-(2-methoxyphenyl)-piperazin-1-yl]-ethyl}-methyl-amide]	222 to 224 °C
COc1ccccc1N1CCN(C[C@@H](CC2CCCCC2)N(C)C(=O)C2(C)CCCCC2)CC1 (as salt: hydrochloride) [Example 4, 1-Methyl-cyclohexanecarboxylic Acid {(1R)-1-Cyclohexylmethyl-2-[4-(2-methoxyphenyl)-piperazin-1-yl]-ethyl}-methyl-amide]	208 to 210 °C
CN(C(=O)C1(C)CCCCC1)[C@H](CC1CCCCC1)CN1CCN(c2cccc3c2OCCO3)CC1 (as salt: hydrochloride) [Example 6, 1-Methyl-cyclohexanecarboxylic Acid {(1R)-1-Cyclohexylmethyl-2-[4-(2,3-dihydro-benzo[1,4]dioxin-5-yl)-piperazin-1-yl]-ethyl}-methyl-amide]	219 to 220 °C
CN(C(=O)C1(C)CCCCC1)[C@H](CC1CCCCC1)CN1CCN(c2cccc3[nH]ccc23)CC1 (as salt: hydrochloride) [Example 8]	253 to 254 °C
O=C(N[C@H](CC1CCCCC1)CN1CCN(c2ncccn2)CC1)C1CCCCC1 (as salt: hydrochloride) [Example 10, Cyclohexanecarboxylic Acid {(1R)-1-Cyclohexylmethyl-2-[4-(pyrimidin-2-yl)-piperazin-1-yl]-ethyl}-amide]	121 to 123 °C
O=C(N[C@H](CC1CCCCC1)CN1CCN(c2ncccn2)CC1)C1CCC1 (as salt: hydrochloride) [Example 11, Cyclobutane Carboxylic Acid {(1R)-1-Cyclohexylmethyl-2-[4-(pyrimidin-2-yl)-piperazin-1-yl]-ethyl}-amide]	112 to 114 °C
COc1cccc(N2CCN(C[C@H](CC3CCCCC3)NC(=O)C3CCCCC3)CC2)n1 (as salt: hydrochloride) [Example 12, Cyclohexane Carboxylic Acid {(1S)-1-Cyclohexylmethyl-2-[4-(6methoxypyridin-2-yl)-piperazin-1-yl]-ethyl}-amide]	107 to 109 °C
O=C(N[C@H](CC1CCCCC1)CN1CCN(c2nc3ccccc3s2)CC1)C1CCCCC1 (as salt: hydrochloride) [Example 13, Cyclohexanecarboxylic Acid {(1R)-1-Cyclohexylmethyl-2-[4-(benzothiazol-2-yl)-piperazin-1-yl]-ethyl}-amide]	229 to 232 °C

Source: patent publication US6518272B2, “Cycloalkyl-substituted aryl-piperazines, piperidines and tetrahydropyridines as serotonergic agents” (Wyeth, priority 1998, dated 2003)
